Data as given in PubChem BioAssay AID1845206 (Molecular Pharmacology Branch, DTP, NCI, 2023).

System: NCI-H1618 multicellular tumor spheroid viability
Experiment: Anticancer human tumor NCI-H1618 cell line growth inhibition;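 also: spheroids exposed to agents for 7 days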
Conditions: for IC50: curve of first compound; for viability, T/C: stronger effect = lower value
Excerpt: Multicellular complex tumor spheroid response to DNA repair inhibitors in combination with DNA-damaging drugs
This study explores the anticancer activities of DNA-damaging drugs and inhibitors of DNA damage repair, both as single agents and in combinations. Complex tumor spheroids comprised of malignant cells, endothelial cells and mesenchymal stem cells served as an in vitro model for human solid tumors. This model system incorporates physiologically relevant features and patient-derived or established malignant cell lines with clinically relevant genetic alterations from many tumor types. Twenty-six patient-derived or established malignant cell lines were evaluated representing sarcoma, melanoma, small cell lung cancer (SCLC), non-small cell lung cancer (NSCLC), as well as bladder, ovarian and pancreatic cancers. The concentration ranges selected for each drug and investigational agent were based upon clinically achievable concentrations if the clinical Cmax of the agent was known.
Compounds. The drugs and compounds olaparib (NSC753686), talazoparib (NSC767125), berzosertib (NSC777718), elimusertib (NSC800525), nedisertib (NSC802822), VX-984 (NSC792969), AZD-1390 (NSC803789), temozolomide (NSC362856), topotecan (NSC609699), trabectedin (NSC813783), staurosporine (NSC755774), and gemcitabine (NSC613327) were obtained from the National Cancer Institute (NCI) Developmental Therapeutics Program Chemical Repository. The FDA-approved anticancer drug set is available from the Developmental Therapeutics Program at https://dtp.cancer.gov/organization/dscb/obtaining/available_plates.htm. […] The stock solutions were prepared in dimethyl sulfoxide (DMSO, Sigma-Aldrich, St. Louis, MO, cat. D2650) at 400-fold the tested concentration and stored at -70 degrees C. Prior to their use, the stock solutions were diluted in fresh medium and the final DMSO concentration in the assay was 0.25% (v/v). All drugs and investigational agents were tested over a range starting from a high concentration at or near the clinical Cmax and decreasing in half-log increments. If the clinical Cmax for an agent had not been determined, the highest concentration tested was 10 microM.
Cell Lines. The patient-derived cancer cell (PDC) lines: 156681-154-R-J1-PDC, 283228-195-R-J1-PDC, 287954-098-R-J1-PDC, 292921-168-R-J2-PDC, 349418-098-R-PDC, 425362-245-T-J1-PDC, 556581-035-R-J1-PDC, and BL0293-F563-PDC were received from the NCI Patient-Derived Models Repository (PDMR, https://pdmr.cancer.gov). The established cell lines HS-SY-2 (RRID:CVCL_8719), MPNST, and SYO-1 (RRID:CVCL_7146) were obtained from the Sloan Kettering Institute. The alveolar soft parts sarcoma cell line ASPS-1 (RRID:CVCL_S738) was established at the NCI and grown from internal seed stocks. The following established cell lines were purchased from the American Type Culture Collection (ATCC, Manassas, VA): G-401 (ATCC, cat. CRL-1441, RRID:CVCL_0270), SW982 (ATCC, cat. HTB-93, RRID:CVCL_1734), VA-ES-BJ (ATCC, cat. CRL-2138, RRID:CVCL_1785), NCI-H719 (ATCC, cat. CRL-5837, RRID:CVCL_1582), NCI-H196 (ATCC, cat. CRL-5823, RRID:CVCL_1509), NCI-H841 (ATCC, cat. CRL-5845, RRID:CVCL_1595), NCI-H1618 (ATCC, cat. CRL-5879, RRID:CVCL_1480), NCI-H1876 (ATCC, cat. CRL-5902, RRID:CVCL_1503), DMS 114 (ATCC, cat. CRL-2066; RRID:CVCL_1174), NCI-H211 (ATCC, cat. CRL-5824; RRID:CVCL_1529), and SW 1271 (ATCC, cat. CRL-2177, RRID:CVCL_1716). The small cell lung cancer cell line COR-L88 was purchased from Sigma-Aldrich (cat. 92031917-1VL, RRID:CVCL_1141). The non-small cell lung cancer cell lines NCI-H226 (RRID:CVCL_1544) and NCI-H322M (RRID:CVCL_1557) were established at the NCI and grown from internal seed stocks. Pooled donor human umbilical vein endothelial cells (HUVEC, Lonza, cat. CC-2519) and human mesenchymal stem cells (hMSC, Lonza, cat. PT-2501) were purchased from Lonza (Walkersville, MD).
Cell Culture. All cells were maintained in an incubator at 37 degrees C and 5% CO2 with 95% humidity. […]

[1] = second compound 0.003 µM, first compound 0.0316 µM
[2] = second compound 0.003 µM, first compound 0.1 µM
[3] = second compound 0.003 µM, first compound 0.316 µM
[4] = second compound 0.003 µM, first compound 1 µM
[5] = second compound 0.003 µM, first compound 3.16 µM
[6] = second compound 0.003 µM, first compound 10 µM
[7] = second compound 0.00949 µM, first compound 0.0316 µM
[8] = second compound 0.00949 µM, first compound 0.1 µM
[9] = second compound 0.00949 µM, first compound 0.316 µM
[10] = second compound 0.00949 µM, first compound 1 µM
[11] = second compound 0.00949 µM, first compound 3.16 µM
[12] = second compound 0.00949 µM, first compound 10 µM
[13] = second compound 0.03 µM, first compound 0.0316 µM
[14] = second compound 0.03 µM, first compound 0.1 µM
[15] = second compound 0.03 µM, first compound 0.316 µM
[16] = second compound 0.03 µM, first compound 1 µM
[17] = second compound 0.03 µM, first compound 3.16 µM
[18] = second compound 0.03 µM, first compound 10 µM
[19] = second compound 0.0949 µM, first compound 0.0316 µM
[20] = second compound 0.0949 µM, first compound 0.1 µM
[21] = second compound 0.0949 µM, first compound 0.316 µM
[22] = second compound 0.0949 µM, first compound 1 µM
[23] = second compound 0.0949 µM, first compound 3.16 µM
[24] = second compound 0.0949 µM, first compound 10 µM
[25] = second compound 0.3 µM, first compound 0.0316 µM
[26] = second compound 0.3 µM, first compound 0.1 µM
[27] = second compound 0.3 µM, first compound 0.316 µM
[28] = second compound 0.3 µM, first compound 1 µM
[29] = second compound 0.3 µM, first compound 3.16 µM
[30] = second compound 0.3 µM, first compound 10 µM

Row | SMILES | IC50 (second compound 0.003 µM) | IC50 (second compound 0.00949 µM) | IC50 (second compound 0.03 µM) | IC50 (second compound 0.0949 µM) | IC50 (second compound 0.3 µM) | viability, T/C [1] | viability, T/C [2] | viability, T/C [3] | viability, T/C [4] | viability, T/C [5] | viability, T/C [6] | viability, T/C [7] | viability, T/C [8] | viability, T/C [9] | viability, T/C [10] | viability, T/C [11] | viability, T/C [12] | viability, T/C [13] | viability, T/C [14] | viability, T/C [15] | further results
1 | CC1COCCN1c1cc(-c2ccnn2C)c2ccnc(-c3ccn[nH]3)c2n1 (stereo not given) + CC[C@@]1(O)C(=O)OCc2c1cc1n(c2=O)Cc2cc3c(CN(C)C)c(O)ccc3nc2-1 | < 31.6 nM | < 31.6 nM | < 31.6 nM | < 31.6 nM | < 31.6 nM | 29.3% | 15.1% | 7% | 2.06% | 2.27% | 0.99% | 7.33% | 4.63% | 4.22% | 2.35% | 2.23% | 1.12% | 2.57% | 3.94% | 3.52% | viability, T/C [16]: 1.99%; viability, T/C [17]: 1.19%; viability, T/C [18]: 0.71%; viability, T/C [19]: 3.01%; viability, T/C [20]: 2.44%; viability, T/C [21]: 5%; viability, T/C [22]: 2.35%; viability, T/C [23]: 2.1%; viability, T/C [24]: 0.81%; viability, T/C [25]: 1.79%; viability, T/C [26]: 1.4%; viability, T/C [27]: 1.52%; viability, T/C [28]: 1.45%; viability, T/C [29]: 0.77%; viability, T/C [30]: 0.65%
2 | COc1cc(C)[nH]c(=O)c1CN1CCc2c(Cl)cc(C(OC)C3COC3)c(Cl)c2C1=O (stereo not given) + CC[C@@]1(O)C(=O)OCc2c1cc1n(c2=O)Cc2cc3c(CN(C)C)c(O)ccc3nc2-1 | > 10000 nM | < 31.6 nM | < 31.6 nM | < 31.6 nM | < 31.6 nM | 54.1% | 52.3% | 78.8% | 63.3% | 83.5% | 53.2% | 39.5% | 10.9% | 17.2% | 40.1% | 38.8% | 29.1% | 6.67% | 5.82% | 8.79% | viability, T/C [16]: 4.86%; viability, T/C [17]: 5.97%; viability, T/C [18]: 7.23%; viability, T/C [19]: 6.1%; viability, T/C [20]: 2.42%; viability, T/C [21]: 2.48%; viability, T/C [22]: 6.01%; viability, T/C [23]: 4.18%; viability, T/C [24]: 6.78%; viability, T/C [25]: 2.05%; viability, T/C [26]: 2.31%; viability, T/C [27]: 2%; viability, T/C [28]: 1.4%; viability, T/C [29]: 3.18%; viability, T/C [30]: 2.92%
